Experimental data from patent EP1789452B1, “RELAXIN-CHIMERIC POLYPEPTIDES AND THEIR PREPARATION AND USE” (Janssen Pharmaceutica NV, priority 2004, dated 2006).

Key:
LGR8 = target: T1, LGR8 (Homo sapiens, UniProt Q8WXD0); assay: Stimulation of β-galactosidase expression in SK-N-MC/β-gal cells; assay type: cell-based; details: highest concentration tested 1 µM
T1 construct: Human LGR8 cDNA containing the complete coding region was PCR amplified from a human testis cDNA pool; expressed in transfected cells
T1 sequence (Q8WXD0 whole entry): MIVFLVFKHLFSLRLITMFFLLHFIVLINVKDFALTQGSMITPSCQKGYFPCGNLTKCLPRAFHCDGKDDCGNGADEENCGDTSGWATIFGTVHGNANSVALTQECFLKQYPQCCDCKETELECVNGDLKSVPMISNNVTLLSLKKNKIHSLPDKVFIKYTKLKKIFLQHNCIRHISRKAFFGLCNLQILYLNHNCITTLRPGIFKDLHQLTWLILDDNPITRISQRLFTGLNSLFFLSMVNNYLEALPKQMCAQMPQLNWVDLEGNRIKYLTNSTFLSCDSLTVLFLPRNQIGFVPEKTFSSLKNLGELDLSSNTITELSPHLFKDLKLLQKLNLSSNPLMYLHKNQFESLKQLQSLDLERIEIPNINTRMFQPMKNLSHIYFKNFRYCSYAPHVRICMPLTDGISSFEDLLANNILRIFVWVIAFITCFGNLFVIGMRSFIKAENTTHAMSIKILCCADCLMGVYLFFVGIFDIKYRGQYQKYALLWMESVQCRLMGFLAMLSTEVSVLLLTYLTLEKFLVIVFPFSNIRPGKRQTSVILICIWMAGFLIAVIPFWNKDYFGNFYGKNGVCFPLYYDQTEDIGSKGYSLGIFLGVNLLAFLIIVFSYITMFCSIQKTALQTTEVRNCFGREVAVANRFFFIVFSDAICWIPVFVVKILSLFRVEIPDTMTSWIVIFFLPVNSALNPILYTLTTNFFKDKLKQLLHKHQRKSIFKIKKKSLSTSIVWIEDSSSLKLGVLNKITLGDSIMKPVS

LGR7 = target: T2, LGR7 (Homo sapiens, UniProt Q9HBX9); assay: as above; assay type: cell-based
T2 construct: Human LGR7 cDNA containing the complete coding region was PCR amplified from a human brain cDNA pool; expressed in transfected cells; host or cells: COS-7 (transient, live cells)
T2 sequence (Q9HBX9 1-757): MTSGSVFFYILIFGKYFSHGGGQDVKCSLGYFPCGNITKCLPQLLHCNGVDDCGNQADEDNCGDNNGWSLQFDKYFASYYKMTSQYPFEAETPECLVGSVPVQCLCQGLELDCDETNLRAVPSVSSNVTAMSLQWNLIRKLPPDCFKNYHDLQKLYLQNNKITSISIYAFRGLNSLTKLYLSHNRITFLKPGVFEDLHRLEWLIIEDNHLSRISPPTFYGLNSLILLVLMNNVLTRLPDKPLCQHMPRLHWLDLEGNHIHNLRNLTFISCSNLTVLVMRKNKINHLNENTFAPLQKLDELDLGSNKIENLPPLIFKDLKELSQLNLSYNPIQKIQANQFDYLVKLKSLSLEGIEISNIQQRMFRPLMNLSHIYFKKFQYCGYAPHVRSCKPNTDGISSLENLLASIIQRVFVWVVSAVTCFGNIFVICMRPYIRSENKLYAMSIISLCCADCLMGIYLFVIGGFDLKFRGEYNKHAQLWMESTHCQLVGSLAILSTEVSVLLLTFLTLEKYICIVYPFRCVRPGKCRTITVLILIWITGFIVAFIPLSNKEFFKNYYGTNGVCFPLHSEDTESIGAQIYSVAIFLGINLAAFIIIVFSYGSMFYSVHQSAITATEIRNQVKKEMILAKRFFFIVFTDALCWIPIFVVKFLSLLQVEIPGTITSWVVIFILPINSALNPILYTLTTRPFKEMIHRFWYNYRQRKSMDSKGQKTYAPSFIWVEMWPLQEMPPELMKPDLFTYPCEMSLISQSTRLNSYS

CC[C@H](C)[C@H](NC(=O)[C@H](Cc1ccccc1)NC(=O)[C@H](CCC(=O)O)NC(=O)[C@H](CCCNC(=N)N)NC(=O)CNC(=O)[C@H](CS)NC(=O)[C@H](CC(C)C)NC(=O)[C@H](CCCNC(=N)N)NC(=O)[C@@H](NC(=O)CNC(=O)[C@H](Cc1ccc(O)cc1)NC(=O)[C@@H]1CCCN1C(=O)[C@H](C)NC(=O)[C@H](C)NC(=O)[C@@H](N)CCCNC(=N)N)C(C)C)C(=O)N[C@@H](CCCNC(=N)N)C(=O)N[C@@H](C)C(=O)N[C@H](C(=O)N[C@H](C(=O)N[C@@H](Cc1ccccc1)C(=O)N[C@H](C(=O)N[C@@H](CS)C(=O)NCC(=O)NCC(=O)N[C@@H](CO)C(=O)N[C@@H](CCCNC(=N)N)C(=O)N[C@@H](Cc1c[nH]c2ccccc12)C(=O)O)[C@@H](C)O)[C@@H](C)CC)C(C)C [relaxin-3 B-chain]
activity towards LGR8 (LGR8): did not activate
activation of LGR7 expressing cells (LGR7): did not activate
